# Data published in patent publication US20220351806A1, “Biomarker Panels for Guiding Dysregulated Host Response Therapy” (Endpoint Health Inc., priority 2019, published 2022).
# Tested on: burn-induced SIRS patients
# Experiment: Burn-Induced SIRS trial survival analysis, hydrocortisone vs placebo, by patient subtype classifier
# Format: in vivo, human
# Parameters: lower mortality in the hydrocortisone group when compared to the placebo group / Mortality reduction / Mortality rate: concentration or dose not given beside the values
# Details: for Alive / Dead / Mortality rate / Survival rate: Hydro arm; for Alive / Dead / Mortality rate / Survival rate / Mortality Reduction Group / Mortality reduction: day 28; for Mortality Reduction Group: Hydro vs Placebo
# Source text: The test expression data from each trial were normalized by the platform normalization matrix described above^13 so that the test data were more consistent with the training data. The classifiers (e.g., the Full Model, the SS Model, the S Model, and the P Model) were then applied to the normalized data such that the patients were classified into A, B, and C subtypes. […] Therefore, each sample in the target samples was normalized independently with the normalization matrix of the sample array platform.
# Survival and mortality rates were calculated at day 28 because survival and mortality labels at other time points were not available. […] Binomial and Chi-squared with continuity correction tests were used to test for the significance of these differences.
# The chi-squared p-value was calculated with continuity correction when computed for 2-by-2 tables.
# [1] = Full Model, Total (all subtypes)
smiles,measurement,setting,value
"C[C@]12CCC(=O)C=C1CC[C@@H]1[C@@H]2[C@@H](O)C[C@@]2(C)[C@H]1CC[C@]2(O)C(=O)CO [Hydro, hydrocortisone]",Alive,[1],9
same,Dead,[1],6
same,Mortality rate,[1],40.0%
same,Survival rate,[1],60.0%
same,Mortality Reduction Group,[1],Placebo
same,Mortality reduction,"Full Model, Total (all subtypes), reduction group Placebo",66.7%
same,Alive,"Full Model, subtype A",2
same,Dead,"Full Model, subtype A",1
same,Survival rate,"Full Model, subtype A",66.7%
same,Mortality Reduction Group,"Full Model, subtype A",Placebo
same,Mortality reduction,"Full Model, subtype A, reduction group Placebo",100.0%
same,Alive,"Full Model, subtype B",6
same,Dead,"Full Model, subtype B",1
same,Mortality rate,"Full Model, subtype B",14.3%
same,Survival rate,"Full Model, subtype B",85.7%
same,Mortality Reduction Group,"Full Model, subtype B",Hydro
same,Mortality reduction,"Full Model, subtype B, reduction group Hydro",64.3%
same,Alive,"Full Model, subtype C",1
same,Dead,"Full Model, subtype C",4
same,Mortality rate,"Full Model, subtype C",80.0%
same,Survival rate,"Full Model, subtype C",20.0%
same,Mortality Reduction Group,"Full Model, subtype C",Placebo
same,Mortality reduction,"Full Model, subtype C, reduction group Placebo",100.0%
same,Alive,"Full Model, subtypes CA",3
same,Dead,"Full Model, subtypes CA",5
same,Mortality rate,"Full Model, subtypes CA",62.5%
same,Survival rate,"Full Model, subtypes CA",37.5%
same,Mortality Reduction Group,"Full Model, subtypes CA",Placebo
same,Mortality reduction,"Full Model, subtypes CA, reduction group Placebo",100.0%
same,Alive,"P Model, Total (all subtypes)",9
same,Dead,"P Model, Total (all subtypes)",6
same,Mortality rate,"P Model, Total (all subtypes)",40.0%
same,Survival rate,"P Model, Total (all subtypes)",60.0%
same,Mortality Reduction Group,"P Model, Total (all subtypes)",Placebo
same,Mortality reduction,"P Model, Total (all subtypes), reduction group Placebo",66.7%
same,Alive,"P Model, subtype A",4
same,Dead,"P Model, subtype A",1
same,Mortality rate,"P Model, subtype A",20.0%
same,Survival rate,"P Model, subtype A",80.0%
same,Mortality Reduction Group,"P Model, subtype A",Placebo
same,Mortality reduction,"P Model, subtype A, reduction group Placebo",100.0%
same,Alive,"P Model, subtype B",5
same,Dead,"P Model, subtype B",1
same,Survival rate,"P Model, subtype B",83.3%
same,Mortality Reduction Group,"P Model, subtype B",Hydro
same,Mortality reduction,"P Model, subtype B, reduction group Hydro",50.0%
same,Alive,"P Model, subtype C",0
same,Dead,"P Model, subtype C",4
same,Mortality rate,"P Model, subtype C",100.0%
same,Survival rate,"P Model, subtype C",0.0%
same,Mortality Reduction Group,"P Model, subtype C",Placebo
same,Mortality reduction,"P Model, subtype C, reduction group Placebo",100.0%
same,Alive,"P Model, subtypes CA",4
same,Dead,"P Model, subtypes CA",5
same,Mortality rate,"P Model, subtypes CA",55.6%
same,Survival rate,"P Model, subtypes CA",44.4%
same,Mortality Reduction Group,"P Model, subtypes CA",Placebo
same,Mortality reduction,"P Model, subtypes CA, reduction group Placebo",100.0%
same,Alive,"S Model, Total (all subtypes)",9
same,Dead,"S Model, Total (all subtypes)",6
same,Mortality rate,"S Model, Total (all subtypes)",40.0%
same,Survival rate,"S Model, Total (all subtypes)",60.0%
same,Mortality Reduction Group,"S Model, Total (all subtypes)",Placebo
same,Mortality reduction,"S Model, Total (all subtypes), reduction group Placebo",66.7%
same,Alive,"S Model, subtype A",3
same,Dead,"S Model, subtype A",2
same,Mortality rate,"S Model, subtype A",40.0%
same,Survival rate,"S Model, subtype A",60.0%
same,Mortality Reduction Group,"S Model, subtype A",Placebo
same,Mortality reduction,"S Model, subtype A, reduction group Placebo",58.3%
same,Alive,"S Model, subtype B",6
same,Dead,"S Model, subtype B",1
same,Mortality rate,"S Model, subtype B",14.3%
same,Survival rate,"S Model, subtype B",85.7%
same,Mortality Reduction Group,"S Model, subtype B",Hydro
same,Mortality reduction,"S Model, subtype B, reduction group Hydro",28.6%
same,Alive,"S Model, subtype C",0
same,Dead,"S Model, subtype C",3
same,Mortality rate,"S Model, subtype C",100.0%
same,Survival rate,"S Model, subtype C",0.0%
same,Mortality Reduction Group,"S Model, subtype C",Placebo
same,Mortality reduction,"S Model, subtype C, reduction group Placebo",100.0%
same,Alive,"S Model, subtypes CA",3
same,Dead,"S Model, subtypes CA",5
same,Mortality rate,"S Model, subtypes CA",62.5%
same,Survival rate,"S Model, subtypes CA",37.5%
same,Mortality Reduction Group,"S Model, subtypes CA",Placebo
same,Mortality reduction,"S Model, subtypes CA, reduction group Placebo",84.0%
same,lower mortality in the placebo group when compared to the hydrocortisone therapy group,"SIRS patients, 28-day, C subtype, Full Model",100%
same,lower mortality in the placebo group when compared to the hydrocortisone therapy group,"SIRS patients, 28-day, C subtype, P Model",100%
same,lower mortality in the placebo group when compared to the hydrocortisone therapy group,"SIRS patients, 28-day, C subtype, S Model",100%
same,lower mortality in the placebo group when compared to the hydrocortisone therapy group,"SIRS patients, 28-day, C subtype, SS Model",65%
same,lower mortality in the placebo group when compared to the hydrocortisone therapy group,"SIRS patients, 28-day, subtype A, Full, S, and P Models",100%
same,lower mortality in the hydrocortisone group when compared to the placebo group,"SIRS patients, 28-day, subtype B, S Model",28.6%
same,Alive,"SS Model, Total (all subtypes)",9
same,Dead,"SS Model, Total (all subtypes)",6
same,Mortality rate,"SS Model, Total (all subtypes)",40.0%
same,Survival rate,"SS Model, Total (all subtypes)",60.0%
same,Mortality Reduction Group,"SS Model, Total (all subtypes)",Placebo
same,Mortality reduction,"SS Model, Total (all subtypes), reduction group Placebo",66.7%
same,Alive,"SS Model, subtype A",4
same,Dead,"SS Model, subtype A",2
same,Survival rate,"SS Model, subtype A",66.7%
same,Mortality Reduction Group,"SS Model, subtype A",Placebo
same,Mortality reduction,"SS Model, subtype A, reduction group Placebo",40.0%
same,Alive,"SS Model, subtype B",2
same,Dead,"SS Model, subtype B",0
same,Mortality rate,"SS Model, subtype B",0.0%
same,Survival rate,"SS Model, subtype B",100.0%
same,Mortality Reduction Group,"SS Model, subtype B",Placebo
same,Alive,"SS Model, subtype C",3
same,Dead,"SS Model, subtype C",4
same,Mortality rate,"SS Model, subtype C",57.1%
same,Survival rate,"SS Model, subtype C",42.9%
same,Mortality Reduction Group,"SS Model, subtype C",Placebo
same,Mortality reduction,"SS Model, subtype C, reduction group Placebo",65.0%
same,Alive,"SS Model, subtypes CA",7
same,Dead,"SS Model, subtypes CA",6
same,Mortality rate,"SS Model, subtypes CA",46.2%
same,Survival rate,"SS Model, subtypes CA",53.8%
same,Mortality Reduction Group,"SS Model, subtypes CA",Placebo
same,Mortality reduction,"SS Model, subtypes CA, reduction group Placebo",56.7%
